Entries after “also recorded” stand apart in the source; their conditions may differ. Where a name gives a salt, the structure may show the parent alone. Read-outs that look alike come from different tables or passages of the source.
Tests used:
[1] = pKa analysis, potentiometric titration; assay type: physicochemical; settings: 22° C., ISA water (ionic strength 0.15, KCl)
Description: The Compound titration was performed at 22° C. in ISA water. The weighed amount of TC (2.40 mg) was placed into a titration vial. ISA water (15 mL) was delivered automatically to the vial. The pH value of the solution was adjusted to 3 by adding 0.5 M HCl automatically. The titration with 0.5 M KOH was performed automatically until a pH value of 11.5 was reached. One additional mL of ISA water was added to the titration vial to perform the second titration and third titration, per titration respectively. The datasets for the three titrations were combined in the Refinement Pro program to create a Multiset for pKa calculation.
First, the pKa measurements and calculations for Compound C0105 were performed with the presumption that there were two basic ionizable groups. […] Then the pKa calculations for the Compound were performed with the presumption that there was one basic ionizable group.

[2] = molecular target: T1, filamin-A (FLNA) (Homo sapiens, UniProt P21333); settings: higher affinity binding site of the two sites; membrane preparation from A7 or SK-N-MC cells; cited from earlier work
T1 construct: in a membrane preparation from A7 cells or SK-N-MC cells; endogenous in cells; host or cells: A7 cells or SK-N-MC cells (membrane preparation)
T1 sequence (P21333 whole entry): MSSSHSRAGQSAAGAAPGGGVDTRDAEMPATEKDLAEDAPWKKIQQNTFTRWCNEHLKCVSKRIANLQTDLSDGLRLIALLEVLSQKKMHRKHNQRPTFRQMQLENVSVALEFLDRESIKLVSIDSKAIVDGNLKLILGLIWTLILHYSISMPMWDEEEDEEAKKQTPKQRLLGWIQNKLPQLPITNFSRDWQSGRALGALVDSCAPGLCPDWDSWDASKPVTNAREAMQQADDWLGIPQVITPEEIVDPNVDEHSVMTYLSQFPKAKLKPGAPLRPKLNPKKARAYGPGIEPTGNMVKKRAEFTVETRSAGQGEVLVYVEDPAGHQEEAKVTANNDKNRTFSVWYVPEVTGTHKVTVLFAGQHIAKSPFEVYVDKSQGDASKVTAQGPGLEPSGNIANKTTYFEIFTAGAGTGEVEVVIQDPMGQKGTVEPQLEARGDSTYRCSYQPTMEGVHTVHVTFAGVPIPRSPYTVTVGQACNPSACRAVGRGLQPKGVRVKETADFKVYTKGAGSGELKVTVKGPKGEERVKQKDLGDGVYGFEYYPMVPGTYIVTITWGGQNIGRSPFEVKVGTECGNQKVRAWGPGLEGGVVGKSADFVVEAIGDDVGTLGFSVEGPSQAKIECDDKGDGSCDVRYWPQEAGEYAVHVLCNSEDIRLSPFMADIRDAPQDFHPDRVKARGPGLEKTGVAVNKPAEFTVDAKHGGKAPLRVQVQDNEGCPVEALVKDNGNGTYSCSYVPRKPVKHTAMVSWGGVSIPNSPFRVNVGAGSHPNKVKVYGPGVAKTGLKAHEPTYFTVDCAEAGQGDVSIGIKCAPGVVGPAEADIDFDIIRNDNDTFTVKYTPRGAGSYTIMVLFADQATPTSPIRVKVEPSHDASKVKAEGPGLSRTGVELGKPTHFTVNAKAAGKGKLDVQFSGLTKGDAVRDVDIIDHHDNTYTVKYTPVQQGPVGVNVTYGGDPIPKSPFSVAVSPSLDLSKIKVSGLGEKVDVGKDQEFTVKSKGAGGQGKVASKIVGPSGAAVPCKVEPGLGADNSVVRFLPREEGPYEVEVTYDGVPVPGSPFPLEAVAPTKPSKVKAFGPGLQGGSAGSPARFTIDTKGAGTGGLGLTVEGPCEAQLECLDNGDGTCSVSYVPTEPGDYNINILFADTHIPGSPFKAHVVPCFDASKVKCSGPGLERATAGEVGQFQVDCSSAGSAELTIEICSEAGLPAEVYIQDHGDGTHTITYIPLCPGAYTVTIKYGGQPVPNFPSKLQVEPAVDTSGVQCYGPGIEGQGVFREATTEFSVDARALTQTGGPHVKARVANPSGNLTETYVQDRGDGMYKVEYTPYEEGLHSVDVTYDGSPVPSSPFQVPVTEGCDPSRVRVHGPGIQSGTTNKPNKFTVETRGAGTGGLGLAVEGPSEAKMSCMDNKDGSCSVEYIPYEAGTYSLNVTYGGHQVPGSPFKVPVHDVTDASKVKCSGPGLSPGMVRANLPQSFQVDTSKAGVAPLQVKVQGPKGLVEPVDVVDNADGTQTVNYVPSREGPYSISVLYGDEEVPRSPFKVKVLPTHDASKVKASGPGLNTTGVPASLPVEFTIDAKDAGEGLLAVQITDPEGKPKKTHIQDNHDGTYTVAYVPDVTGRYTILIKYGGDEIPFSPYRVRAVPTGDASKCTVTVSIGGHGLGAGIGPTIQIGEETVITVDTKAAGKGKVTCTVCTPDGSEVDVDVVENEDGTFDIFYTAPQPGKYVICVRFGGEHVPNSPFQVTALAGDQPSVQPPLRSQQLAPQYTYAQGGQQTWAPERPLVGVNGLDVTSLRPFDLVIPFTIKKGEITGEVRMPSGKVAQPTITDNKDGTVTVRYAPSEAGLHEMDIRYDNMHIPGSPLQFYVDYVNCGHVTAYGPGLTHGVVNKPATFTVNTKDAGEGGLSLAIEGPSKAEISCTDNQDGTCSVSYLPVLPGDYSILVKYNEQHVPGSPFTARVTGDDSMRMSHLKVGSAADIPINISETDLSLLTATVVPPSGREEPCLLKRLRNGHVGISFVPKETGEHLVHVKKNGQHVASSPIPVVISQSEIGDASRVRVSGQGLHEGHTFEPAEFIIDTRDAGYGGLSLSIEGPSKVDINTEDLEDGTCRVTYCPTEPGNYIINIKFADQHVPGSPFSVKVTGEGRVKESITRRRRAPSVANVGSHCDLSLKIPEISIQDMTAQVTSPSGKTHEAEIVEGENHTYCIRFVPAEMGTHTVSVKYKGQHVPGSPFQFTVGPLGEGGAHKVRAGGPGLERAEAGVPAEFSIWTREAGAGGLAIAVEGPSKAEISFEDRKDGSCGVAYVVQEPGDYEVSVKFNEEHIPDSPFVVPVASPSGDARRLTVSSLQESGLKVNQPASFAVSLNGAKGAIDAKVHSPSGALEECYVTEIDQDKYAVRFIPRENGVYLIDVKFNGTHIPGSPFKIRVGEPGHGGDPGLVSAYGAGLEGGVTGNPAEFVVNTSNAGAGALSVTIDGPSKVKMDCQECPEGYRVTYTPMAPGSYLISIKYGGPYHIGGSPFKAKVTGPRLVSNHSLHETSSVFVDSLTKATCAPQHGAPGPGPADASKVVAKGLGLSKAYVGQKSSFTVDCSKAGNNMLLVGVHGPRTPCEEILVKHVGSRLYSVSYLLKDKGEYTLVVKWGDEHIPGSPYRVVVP

[3] = dynamic vapor sorption (DVS); assay type: physicochemical; settings: for hygroscopicity by DVS: 0%-90% RH; for hysteresis: at 0% RH
Description: Approximately 10 mg of sample was placed into a glass vapor sorption balance pan and loaded into a DVS-1 dynamic vapor sorption balance by Surface Measurement Systems. […] After completion of the sorption cycle, the sample was dried using the same procedure, from 90% RH down to 0% RH. The weight change during the sorption/desorption cycles were plotted, permitting the hygroscopic nature of the sample to be determined.

[4] = hydration studies, slurries in IPA/water mixtures; assay type: physicochemical; settings: for Observations, hydration study: IPA/water
[5] = 1 week stability studies (HPLC purity, XRPD, appearance); assay type: physicochemical; settings: for Observations T = 0 / HPLC Purity T = 0: start of stability study
Description: Each salt formed was exposed to environments of 40° C./75% RH (open vial), elevated temperature (80° C., open vial) and ambient light (about 22° C. in a closed vial), for 1 week to assess both chemical and physical stability. Resulting solids were analyzed by X-ray powder diffraction (XRPD) to establish if any changes had occurred and by HPLC to determine purity.

[6] = solvent solubility screen; settings: for solubility: 40 °C
[7] = between 70% and 0% RH, dihydrochloride monohydrate
[8] = 40° C./75% RH, open vial, dihydrochloride monohydrate
[9] = 40° C./75% RH, dihydrochloride monohydrate
[10] = 80° C., open vial, dihydrochloride monohydrate
[11] = 80° C., dihydrochloride monohydrate
[12] = Ambient (light, about 22° C., closed vial)
[13] = Ambient (light, about 22° C., closed vial), dihydrochloride monohydrate
[14] = ambient, dihydrochloride monohydrate
[15] = 1,2-dichloroethene, organic solvent or mixture
[16] = 2-MeTHF, organic solvent or mixture
[17] = 2-butanol, organic solvent or mixture
[18] = 2-propanol, organic solvent or mixture
[19] = 2-propanol:water (10%), organic solvent or mixture
[20] = acetone, organic solvent or mixture
[21] = acetone:water (5%), organic solvent or mixture
[22] = acetone:water (20%), organic solvent or mixture
[23] = acetonitrile, organic solvent or mixture
[24] = cyclohexane, organic solvent or mixture
[25] = dimethylacetamide, organic solvent or mixture
[26] = dimethylsulfoxide, organic solvent or mixture
[27] = ethanol, organic solvent or mixture
[28] = ethyl acetate, organic solvent or mixture
[29] = heptane, organic solvent or mixture
[30] = isopropyl acetate, organic solvent or mixture
[31] = methanol, organic solvent or mixture
[32] = methyl acetate, organic solvent or mixture
[33] = methyl ethyl ketone, organic solvent or mixture
[34] = methyl isobutyl ketone, organic solvent or mixture
[35] = tert-butyl methyl ether, organic solvent or mixture
[36] = tetrahydrofuran, organic solvent or mixture
[37] = toluene, organic solvent or mixture

Structure (SMILES): CN1CCC2(CC1)NCC(=O)N2Cc1ccccc1 [Compound C0105, 1-benzyl-8-methyl-1,4,8-triazaspiro[4.5]-decan-2-one]
- pKa ([1]; higher value): 8
- pKa ([1]; lower value): 1.5
- EC50, inhibition of [3H]NLX binding [2]: 10^−12 to 10^−13 M

Structure (SMILES): CN1CCC2(CC1)NCC(=O)N2Cc1ccccc1 [HCl Di-Salt Hydrate (Form 2), 1-benzyl-8-methyl-1,4,8-triazaspiro-[4.5]-decan-2-one dihydrochloride monohydrate]
- hygroscopicity by DVS ([3]; dihydrochloride monohydrate): less hygroscopic than Form 1 between 0% and 50% RH, but more hygroscopic than Form 1 by DVS analysis >50% RH; also recorded: hygroscopic above 50% RH
- hysteresis [3]: about 0.4%
- water uptake, sorption cycle ([3]; at 50% RH (0% to 50% RH), dihydrochloride monohydrate): about 0.2%
- water uptake, sorption cycle ([3]; at 80% RH, dihydrochloride monohydrate): about 9.9%
- mass decrease, desorption cycle [3, 7]: 6.77%
- post-DVS XRPD analysis ([3]; dihydrochloride monohydrate): increase in crystallinity
- Observations, hydration study ([4]; 5% water, water activity approx. 0.5): White suspension
- Observations, hydration study ([4]; 10% water, water activity approx. 0.7): White suspension
- Observations, hydration study ([4]; 40% water, water activity approx. 0.9): White suspension
- form change by XRPD on stirring in IPA/water mixtures ([4]; various IPA/water mixtures, 24 hours): no form change occurred
- Observations T = One week ([5]; 40° C./75% RH, open vial): White solid
- HPLC Purity T = One week [5, 8]: 99.8%
- polymorphic form by XRPD after 1 week [5, 9]: increase in crystallinity
- Observations T = One week [5, 10]: white to off-white/orange; also recorded: Orange solid
- polymorphic form by XRPD after 1 week [5, 11]: did not indicate significant changes in polymorphic form
- Observations T = One week [5, 12]: White solid
- HPLC Purity T = One week [5, 13]: 99.5%
- polymorphic form by XRPD after 1 week [5, 14]: did not indicate significant changes in polymorphic form
- Observations T = 0 [5]: White solid
- HPLC Purity T = 0 ([5]; dihydrochloride monohydrate): 99.4%

Structure (SMILES): CN1CCC2(CC1)NCC(=O)N2Cc1ccccc1 [HCl Di-Salt Hydrate, Form 1, 1-benzyl-8-methyl-1,4,8-triazaspiro-[4.5]-decan-2-one dihydrochloride monohydrate]
- hygroscopicity by DVS ([3]; dihydrochloride monohydrate): hygroscopic above 50% RH
- final dry mass higher than the initial dry mass ([3]; at 0% RH following sorption and de-sorption profile): 0.13%
- largest hysteresis, difference in water uptake between sorption and de-sorption profile ([3]; at 50% RH): 0.78%
- water uptake, sorption cycle ([3]; at 90% RH, dihydrochloride monohydrate): about 8.26%
- mass decrease, desorption cycle [3, 7]: about 2.33%
- post-DVS XRPD analysis ([3]; dihydrochloride monohydrate): No significant differences in polymorphic form
- Observations T = One week ([5]; 40° C./75% RH, open vial): White solid
- HPLC Purity T = One week [5, 8]: 99.0%
- polymorphic form by XRPD after 1 week [5, 9]: No significant changes in polymorphic form
- HPLC Purity T = One week [5, 10]: 99.4%
- Observations T = One week [5, 10]: Off-white
- polymorphic form by XRPD after 1 week [5, 11]: No significant changes in polymorphic form
- Observations T = One week [5, 12]: White solid
- HPLC Purity T = One week [5, 13]: 99.4%
- polymorphic form by XRPD after 1 week [5, 14]: No significant changes in polymorphic form
- Observations T = 0 [5]: White solid
- HPLC Purity T = 0 ([5]; dihydrochloride monohydrate): 99.1%
- solubility [6, 15]: < 10000 µg/mL
- solubility [6, 16]: < 10000 µg/mL
- Solubility at 40° C. ([6]; 2-Propanol:water (10%)): Moderate solubility
- solubility [6, 17]: < 10000 µg/mL
- solubility [6, 18]: < 10000 µg/mL
- solubility [6, 19]: ~25000 µg/mL
- Solubility at 40° C. ([6]; Acetone:Water (20%)): High solubility
- Solubility at 40° C. ([6]; Dimethylsulfoxide): very high solubility
- Solubility at 40° C. ([6]; Methanol): Moderate solubility
- Solubility at 40° C. ([6]; Water): very high solubility
- solubility [6, 20]: < 10000 µg/mL
- solubility [6, 21]: < 10000 µg/mL
- solubility [6, 22]: ~85000 µg/mL
- solubility [6, 23]: < 10000 µg/mL
- solubility [6, 24]: < 10000 µg/mL
- solubility [6, 25]: < 10000 µg/mL
- solubility [6, 26]: > 200000 µg/mL
- solubility [6, 27]: < 10000 µg/mL
- solubility [6, 28]: < 10000 µg/mL
- solubility [6, 29]: < 10000 µg/mL
- solubility [6, 30]: < 10000 µg/mL
- solubility [6, 31]: ~25000 µg/mL
- solubility [6, 32]: < 10000 µg/mL
- solubility [6, 33]: < 10000 µg/mL
- solubility [6, 34]: < 10000 µg/mL
- solubility [6, 35]: < 10000 µg/mL
- solubility [6, 36]: < 10000 µg/mL
- solubility [6, 37]: < 10000 µg/mL
- solubility ([6]; water): > 200000 µg/mL

Structure (SMILES): CN1CCC2(CC1)NCC(=O)N2Cc1ccccc1.Cl [HCl mono-salt, 1-benzyl-8-methyl-1,4,8-triazaspiro-[4.5]-decan-2-one monohydrochloride]
- post-DVS XRPD analysis [3]: not consistent with any of the forms previously observed
- hygroscopicity by DVS ([3]; monohydrochloride): very hygroscopic above 70% RH; also recorded: deliquesced at high RH
- hysteresis [3]: 7.3%
- water uptake, sorption cycle ([3]; at 70% RH): 2.55%
- water uptake, sorption cycle ([3]; at 90% RH): 68.57%
- mass decrease, desorption cycle ([3]; between 10% and 0% RH): 6.10%
- mass decrease, desorption cycle ([3]; between 90% and 50% RH): 54.25%
- water uptake, sorption cycle ([3]; until 60% RH): about 0.27%
- loss in purity by HPLC during stability studies ([5]; 1 week, all conditions): No significant loss in purity
- polymorphic form by XRPD after 1 week ([5]; 40° C./75% RH): deliquesced
- HPLC Purity T = One week ([5]; 40° C./75% RH, open vial): 99.4%
- Observations T = One week ([5]; 40° C./75% RH, open vial): Clear liquid
- polymorphic form by XRPD after 1 week ([5]; 80° C.): retained its polymorphic form
- HPLC Purity T = One week ([5]; 80° C., open vial): 99.5%
- Observations T = One week ([5]; 80° C., open vial): Off-white
- HPLC Purity T = One week [5, 12]: 98.6%
- Observations T = One week [5, 12]: White solid
- polymorphic form by XRPD after 1 week ([5]; ambient): retained its polymorphic form
- HPLC Purity T = 0 [5]: 98.8%
- Observations T = 0 [5]: White solid
- solubility [6, 15]: < 10000 µg/mL
- solubility [6, 16]: < 10000 µg/mL
- Solubility at 40° C. ([6]; 2-Propanol:water (10%)): very high solubility
- solubility [6, 17]: < 10000 µg/mL
- solubility [6, 18]: < 10000 µg/mL
- solubility [6, 19]: > 200000 µg/mL
- Solubility at 40° C. ([6]; Acetone:Water (5%)): Some solubility
- Solubility at 40° C. ([6]; Acetone:Water (20%)): very high solubility
- Solubility at 40° C. ([6]; Dimethylacetamide): Some solubility
- Solubility at 40° C. ([6]; Dimethylsulfoxide): high solubility
- Solubility at 40° C. ([6]; Ethanol): Some solubility
- Solubility at 40° C. ([6]; Methanol): very high solubility
- Solubility at 40° C. ([6]; Water): very high solubility
- solubility [6, 20]: < 10000 µg/mL
- solubility [6, 21]: ~20000 µg/mL
- solubility [6, 22]: > 200000 µg/mL
- solubility [6, 23]: < 10000 µg/mL
- solubility [6, 24]: < 10000 µg/mL
- solubility [6, 25]: ~10000 µg/mL
- solubility [6, 26]: ~105000 µg/mL
- solubility [6, 27]: ~20000 µg/mL
- solubility [6, 28]: < 10000 µg/mL
- solubility [6, 29]: < 10000 µg/mL
- solubility [6, 30]: < 10000 µg/mL
- solubility [6, 31]: > 200000 µg/mL
- solubility [6, 32]: < 10000 µg/mL
- solubility [6, 33]: < 10000 µg/mL
- solubility [6, 34]: < 10000 µg/mL
- solubility [6, 35]: < 10000 µg/mL
- solubility [6, 36]: < 10000 µg/mL
- solubility [6, 37]: < 10000 µg/mL
- solubility ([6]; water): > 200000 µg/mL

Reference: US11370791B2, “Solid polymorphs of a FLNA-binding compound and its hydrochloride salts” (Pain Therapeutics, Inc., priority 2019, dated 2022)
